Laboratory results reported in US9347077B2, “Over-expression of a putative oxidoreductase (UcpA) for increasing furfural or 5-hydroxymethylfurfural tolerance” (UNIVERSITY OF FLORIDA RESEARCH FOUNDATION, INCORPORATED, priority 2011, dated 2016).
Values after ≈ are worked out from the molar mass of the structure shown.

Legend:
UcpA = target: T1, UcpA (Escherichia coli, UniProt P37440, T153Q); type: biochemical; conditions: lysates of induced LY180 (pLOI4856) vs empty vector control, appropriate cofactors
T1 construct: made in house; host or cells: E. coli LY180 (pLOI4856), IPTG-induced; clarified cell lysate, not purified
Protocol: Cultures were grown overnight to a cell density of approximately 0.66 mg dcw ml^−1 (37° C.) in closed tubes containing 20 ml AM1 (50 g liter^−1 xylose, 0.1 mM IPTG and 12.5 mg liter^−1 ampicillin). Cells were harvested by centrifugation (7,000 g for 5 min, 4° C.), washed twice with 10 ml of cold sodium phosphate buffer (50 mM pH 7.0), resuspended to a cell density of 4.4 mg dcw ml^−1, and disrupted in buffer containing 1 mM dithiothreitol using a Fastprep-24 (MP Biomedicals, Solon, Ohio). After clarification at 13,000 g (10 min, 4° C.), protein concentration was determined using a BCA™ Protein Assay Kit (Thermo Scientific, Rockford, Ill.). Furfural-dependent reduction was measured using NADH and NADPH by monitoring the decrease in absorbance at 340 nm (extinction coefficient of NADH of 6,220 M^−1 cm^−1; extinction coefficient of NADPH of […]). Reaction mixtures contained 200 mM phosphate buffer (pH 7.0), 10 mM furfural, and 0.2 mM NADH or NADPH. NADH-dependent and NADPH-dependent reduction of 5-HMF (10 mM) was measured in a similar fashion.
Additional compounds (ethanol, glycerol, n-butanol, 2-propanol, methanol, acetoin, diacetyl, methyglyoxal, dihydroxyacetone, acetaldehyde, and 1,3-propandiol) were tested as potential substrates for UcpA using appropriate cofactors.

LY180(pTrc99A) = test: Furfural toxicity / MIC in tube cultures, vector control; type: cell-based, Escherichia coli
Protocol: (§1) Furfural toxicity was measured in tube cultures (13 mm by 100 mm) containing 4 ml of AM1 medium with 50 g liter^−1 xylose, 12.5 mg liter^−1 ampicillin, furfural, and other supplements as indicated (Miller et al., 2009a, b). Cultures were inoculated to an initial density of 22 mg dcw liter^−1. IPTG (0.1 mM) was included for fucO induction. Cell mass was measured at 550 nm after incubation for 48 h (37° C.). For cysteine supplement experiment, the culture condition was the same but included 0.1 mM cysteine as an amendment.
(§2) Derivatives of LY180 containing these plasmids were tested for furfural tolerance with (0.1 mM IPTG) and without IPTG induction using an MIC assay (Miller et al., 2009a; Miller et al., 2010; Wang et al., 2011b).

LY180 (pLOI4856) = test: Furfural toxicity / MIC in tube cultures, ucpA plasmid; type: cell-based, Escherichia coli
Protocol: as §1, §2

YqhD = YqhD (Escherichia coli, UniProt Q46856); conditions: read-out: Km for NADPH; cited from earlier work
[1] = Escherichia coli, read-out: MIC for 5-HMF

T1 sequence (P37440 whole entry T153Q): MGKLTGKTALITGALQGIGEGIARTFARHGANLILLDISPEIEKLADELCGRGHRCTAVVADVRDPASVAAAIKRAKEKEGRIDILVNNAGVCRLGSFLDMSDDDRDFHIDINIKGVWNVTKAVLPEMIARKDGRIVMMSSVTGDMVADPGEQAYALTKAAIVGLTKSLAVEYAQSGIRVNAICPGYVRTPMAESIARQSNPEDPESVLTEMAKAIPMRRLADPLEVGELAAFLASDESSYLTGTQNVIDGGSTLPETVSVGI
Sequence of YqhD (Q46856 whole entry): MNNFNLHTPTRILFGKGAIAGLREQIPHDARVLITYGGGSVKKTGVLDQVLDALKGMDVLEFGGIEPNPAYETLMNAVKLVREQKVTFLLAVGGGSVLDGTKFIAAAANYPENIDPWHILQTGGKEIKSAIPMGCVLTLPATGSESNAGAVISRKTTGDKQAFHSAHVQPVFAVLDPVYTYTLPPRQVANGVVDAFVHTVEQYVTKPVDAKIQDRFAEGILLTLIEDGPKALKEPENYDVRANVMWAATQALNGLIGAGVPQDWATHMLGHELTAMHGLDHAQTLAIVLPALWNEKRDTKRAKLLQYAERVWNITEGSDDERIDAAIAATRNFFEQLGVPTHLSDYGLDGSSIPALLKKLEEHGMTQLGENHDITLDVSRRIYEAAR

| Compound | Metabolism as substrate for UcpA (UcpA) | further results |
| --- | --- | --- |
| CC(=O)C(C)=O [diacetyl] | none appeared to be metabolized | – |
| CO [methanol] | none appeared to be metabolized | – |
| CCCCO [n-butanol] | none appeared to be metabolized | – |
| OCC(O)CO [glycerol] | none appeared to be metabolized | – |
| methyglyoxal | none appeared to be metabolized | – |
| N[C@@H](CS)C(=O)O [L-cysteine, reference compound] | – | Effect of L-cysteine supplement on growth in the presence of furfural (LY180(pTrc99A); 0.1 mM L-cysteine, 10 mM furfural): cell growth was increased; Effect of L-cysteine supplement on growth in the presence of furfural (LY180 (pLOI4856); 0.1 mM L-cysteine, 10 mM furfural, ucpA induced): did not alter the growth |
| CC(C)O [2-propanol] | none appeared to be metabolized | – |
| CC(=O)C(C)O (stereo not drawn) [acetoin] | none appeared to be metabolized | – |
| NADPH | – | Km (YqhD): 0.008 mM |
| CC=O [acetaldehyde] | none appeared to be metabolized | – |
| O=Cc1ccc(CO)o1 [5-HMF, 5-hydroxymethylfurfural] | – | MIC (LY180(pTrc99A); [1]): 16 mM (≈ 2020 µg/mL); MIC (LY180 (pLOI4856); [1]): 20 mM (≈ 2520 µg/mL) |
| OCCCO [1,3-propandiol] | none appeared to be metabolized | – |
| CCO [ethanol] | none appeared to be metabolized | – |
